Reference: patent US11602514B2, “Medicament having anti-inflammatory bowel disease function, and preparation method therefor and application thereof” (SUZHOU PHARMAVAN CO., LTD, priority 2018, dated 2023)
“Also recorded” adds a separate entry of the source.

System: IBD model induced by 2.5% TNBS
Assay: TNBS-induced rat in vivo model of IBD
Set-up: species or system SD rats
Settings: 6 days; for injuries of colorectal ulcers (anatomical and pathological HE): FIGS. 20 and 21
Description: Test method: female SPF-grade SD rats each with a weight of 180-200 g were subjected to adaptive feeding for 5-7 days, and then started to be modeled. At the time of modeling, the rats were anesthetized, a pre-labeled cat catheter was inserted through the anus into the colon for 8 cm, 250 μL of 2.5% (wt/vol) TNBS solution was slowly injected into the cavity of the colon, the rat was inverted for 1 min, and then the catheter was slowly removed from the intestine. The rat was hold with its head down towards for 1 min and then put back to a cage. Rats in a blank group were administered with the same volume of normal saline. On the second day of modeling, i.e., D1, the medicament was administered through intragastric administration for 6 continuous days.
Detection indexes: the weight of each group of animals was observed and recorded every day, and feces of each animal were collected at the beginning of experiments to detect occult blood in the feces. If obvious blood in the feces cannot be determined, an occult blood detection kit was used for confirming the occult blood, and the result was recorded on an experimental record paper and photographed. After the end of the experiments, the fecal traits, occult blood, and weight change rate of each animal were scored, and the scores were added to give a DAI score for each animal. Colorectal tissue samples of the animals were collected and a wet weight was weighted for the subsequent pathological detection.

## COc1c2cc(c(O)c1OC)CCCCC(OS(=O)(=O)O)CCc1ccc(O)c-2c1 (centres unmarked) [compound H, 11-sulfonyloxy myricanol]
12.5 mg/kg intragastric, no statistical difference, FIG. 15
  colorectal wet weight (edema): trend of reducing the edema
Oral 12.5 mg/kg, FIG. 16
  area of colorectal ulcers: significantly reducing the area of colorectal ulcers
  area of colorectal ulcers, efficacy compared with 5-ASA: slightly better efficacy than 5-aminosalicylic acid (5-ASA)
Oral 12.5 mg/kg, FIG. 17
  colorectal inflammation, efficacy compared with 5-ASA: substantially same efficacy as 5-aminosalicylic acid (5-ASA)
Oral 12.5 mg/kg, FIG. 17, 12.5 mg/kg
  inflammation score of colorectal pathological HE: significantly reducing the level of colorectal inflammation; also recorded: significantly improving the score of colorectal inflammation
Oral 12.5 mg/kg, FIG. 18
  colorectal total injuries, efficacy compared with 5-ASA: substantially same efficacy as 5-aminosalicylic acid (5-ASA)
Oral 12.5 mg/kg, FIG. 18, 12.5 mg/kg
  score of total injuries of colorectal pathological HE: significantly reducing the level of colorectal total injures; also recorded: significantly reducing the degree of overall colorectal injuries
Oral 12.5 mg/kg, FIG. 19
  injury score of colorectal ulcers, efficacy compared with 5-ASA: slightly better efficacy than 5-aminosalicylic acid (5-ASA)
Oral 12.5 mg/kg, FIG. 19, 12.5 mg/kg
  score of ulcerative injuries of colorectal pathological HE: significantly reducing the injury score of colorectal ulcers; also recorded: significantly reducing the severity of injuries
Oral 12.5 mg/kg
  injuries of colorectal ulcers (anatomical and pathological HE): effect of reducing injuries of colorectal ulcers
Oral 25 mg/kg
  injuries of colorectal ulcers (anatomical and pathological HE): effect of reducing injuries of colorectal ulcers
